The nature of this data set: In-vivo evaluation: phytocannabinoid serum concentrations after oral administration. Conditions: male, C57BL/6J, mouse, mice, 5 mg CBD/kg, 90 min after dosing, average ± standard error. Further details: species or system mice (C57BL/6 J). On the procedure: Animal studies were performed in compliance with the Guide for the Care and Use of Laboratory Animals established by the National Institutes of Health. All procedures and protocols were approved by the Technion Administrative Panel of Laboratory Animal Care (#:IL_050-05-2018).
Subjects 10 adult male mice (C57BL/6 J; The Jackson Laboratory), weighing 20-30 gr were housed in standard laboratory conditions with controlled temperature, humidity, light/dark cycle, ad libitum access to water and regular diet. The experiment was performed at noon, during the light cycle.
CME tea was prepared by pouring 13.3 ml of hot di-ionized water (80° c) over 20 mg of dry SE particles, resulting in CME concentration of […]. The mixture was then genteelly stirred until complete dissolution was observed.
The control solution was prepared by dissolving CME in a solution of 1:1:18 EtOH: Cremophor: PBS. First, 8.5 mg of CME were dissolved in 0.5 ml of EtOH. After that 0.5 ml of Cremophor was added and the mixture was stirred for one hour. Finally, 9 ml of PBS were added, and the mixture was stirred for 30 minutes. Both CME tea and control solution concentrations were calculated to match a dose of 5 mg CBD/kg for a volume intake of 200 μl and an average mouse weight of 25 gr.
For both the control group (5 mice) and the experiment group (5 mice) a dose of 200 μl was orally administered via direct injection to the stomach.
The mice were sacrificed 1.5 hours after oral administration. Blood samples were immediately taken and stored for further examination.
A sample of 600 μl of an extraction solution containing 0.1% v/v acetic acid in a methanol: acetonitrile 1:1 mixture, spiked with 20 ng/ml deuterated internal standards (ISs) was added to 200 μl serum sample. Samples were than vortexed and centrifuged in order to enable protein and cell precipitation. 3 ml of 0.1% v/v acetic acid in water was then added to the supernatants and the sample was loaded onto Agela Cleanert C8 solid phase extraction (SPE) cartridges (500 mg of sorbent, 50 μm particle size). Elution of phytocannabinoids from the columns was done using 2 ml of 0.1% v/v acetic acid in methanol, followed by an evaporation and reconstituted in 100 μl ethanol.
Cannabinoid quantitation was performed as described by P. Berman et al. (Berman et al., 2018).
Phytocannabinoids serum concentrations were evaluated 90 min after oral administration to mice, as detailed above. The control group included a Cremophor EL (castor oil) based emulsion formulation, widely used for its potent solubilizing effect (Comelli F, Giagnoni G, Bettoni I, Colleoni M, 2008). The study group included the F2 tea formulation prepared at 0.62 mg CBD/mL, with both formulations providing 5mg/kg of CBD per body weight.

The mark [1] stands for this setting: CME in Cremophor EL emulsion (1:1:18 EtOH:Cremophor:PBS), read-out: Serum concentration, Control group.
Where [2] appears, read: po, F2 tea formulation, read-out: Serum Concentration, Experiment Group.

Like-named read-outs stand apart in the source and are kept apart here.

With `CCCCCc1cc(O)c2c(c1)OC(C)(CCC=C(C)C)C=C2` (centres unmarked) [CBC, cannabichromene], the concentration at 90 min is 247 ± 48 ng/mL under setting [1] and 210 ± 72 ng/mL under setting [2].

With `C=C(C)[C@@H]1CCC(C)=C[C@H]1c1c(O)cc(CCCCC)cc1O` [CBD, cannabidiol], the concentration at 90 min is 3100 ± 970 ng/mL under setting [1] and 1500 ± 130 ng/mL under setting [2].

Regarding `CCCCCc1cc(O)c2c(c1)OC(C)(C)c1ccc(C)cc1-2` [CBN, cannabinol], the concentration at 90 min by setting is: under setting [1], 100 ± 5 ng/mL; under setting [2], 125 ± 12 ng/mL.

`CCCCCc1cc(O)c2c(c1)OC(C)(C)[C@@H]1CCC(C)=C[C@@H]21` [THC, (—)-trans-Δ^9-tetrahydrocannabinol]: the concentration at 90 min reads like this: under setting [1], 343 ± 90 ng/mL; under setting [2], 115 ± 15 ng/mL.

These data come from US20220378699A1, “SELF-E[…] EXTRACT” (ISRAEL PLASTICS AND RUBBER CENTER LTD., priority 2019, published 2022).
